Reference: the supplement of paper PMC10307832

Columns and labels:
Assay in all cases: relative viability (nuclei count vs DMSO), 5 days (fraction); higher = more cells survive
NCI-H1993 = system: NCI-H1993
In short: (§1)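 Relative viability is defined as nuclei in treated wells over nuclei in vehicle wells. Duplicate plates were run and medians reported. Lung cancer cell lines in 1536-well plates were dosed by pin tool one day after seeding, with one drug or with a fixed anchor-drug dose plus five library-drug doses (not always all listed) in √10 steps, and nuclei were counted after 5 days.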

NCI-H1734 = system: NCI-H1734
In short: as §1

HCC-827 = system: HCC-827
In short: as §1

BEN = system: BEN
In short: as §1

HCC-366 = system: HCC-366
In short: as §1

NCI-H2009 = system: NCI-H2009
In short: as §1

SK-MES-1 = system: SK-MES-1
In short: as §1

NCI-H2405 = system: NCI-H2405
In short: as §1

LOU-NH91 = system: LOU-NH91
In short: as §1

HARA = system: HARA
In short: as §1

NCI-H2087 = system: NCI-H2087
In short: as §1

NCI-H1355 = system: NCI-H1355
In short: as §1

NCI-H2170 = system: NCI-H2170
In short: as §1

SK-LU-1 = system: SK-LU-1
In short: as §1

NCI-H661 = system: NCI-H661
In short: as §1

NCI-H1395 = system: NCI-H1395
In short: as §1

NCI-H2342 = system: NCI-H2342
In short: as §1

NCI-H647 = system: NCI-H647
In short: as §1

NCI-H1792 = system: NCI-H1792
In short: as §1

EKVX = system: EKVX
In short: as §1

NCI-H1437 = system: NCI-H1437
In short: as §1

NCI-H522 = system: NCI-H522
In short: as §1

COc1nc(C)cnc1NS(=O)(=O)c1cccnc1-c1ccc(-c2nnco2)cc1 [Zibotentan] + CC(=O)c1c(C)c2cnc(Nc3ccc(N4CCNCC4)cn3)nc2n(C2CCCC2)c1=O [Palbociclib] (partner 0.5 µM) gave a relative viability (NCI-H1993; first compound 0.08 µM) of 0.661, a relative viability (NCI-H1993; first compound 0.253 µM) of 0.712 and a relative viability (NCI-H1993; first compound 0.8 µM) of 0.537. It also gave a relative viability (NCI-H1993; first compound 2.53 µM) of 0.662, a relative viability (NCI-H1734; first compound 0.08 µM) of 0.337 and a relative viability (NCI-H1734; first compound 0.253 µM) of 0.32. For the same compound, the relative viability (NCI-H1734; first compound 0.8 µM) was 0.374, the relative viability (NCI-H1734; first compound 2.53 µM) was 0.407 and the relative viability (HCC-827; first compound 0.08 µM) was 0.437. It also gave a relative viability (HCC-827; first compound 0.253 µM) of 0.49, a relative viability (HCC-827; first compound 0.8 µM) of 0.454 and a relative viability (HCC-827; first compound 2.53 µM) of 0.487. For the same compound, the relative viability (BEN; first compound 0.08 µM) was 0.496, the relative viability (BEN; first compound 0.253 µM) was 0.493 and the relative viability (BEN; first compound 0.8 µM) was 0.451. It also gave a relative viability (BEN; first compound 2.53 µM) of 0.44, a relative viability (HCC-366; first compound 0.08 µM) of 0.387 and a relative viability (HCC-366; first compound 0.253 µM) of 0.285. The relative viability (HCC-366; first compound 0.8 µM) was 0.383, the relative viability (HCC-366; first compound 2.53 µM) was 0.4 and the relative viability (NCI-H2009; first compound 0.08 µM) was 0.188. For the same compound, the relative viability (NCI-H2009; first compound 0.253 µM) was 0.169, the relative viability (NCI-H2009; first compound 0.8 µM) was 0.205 and the relative viability (NCI-H2009; first compound 2.53 µM) was 0.212. The relative viability (SK-MES-1; first compound 0.08 µM) was 0.309, the relative viability (SK-MES-1; first compound 0.253 µM) was 0.284 and the relative viability (SK-MES-1; first compound 0.8 µM) was 0.35. It also gave a relative viability (SK-MES-1; first compound 2.53 µM) of 0.362, a relative viability (NCI-H2405; first compound 0.08 µM) of 0.544 and a relative viability (NCI-H2405; first compound 0.253 µM) of 0.546. For the same compound, the relative viability (NCI-H2405; first compound 0.8 µM) was 0.544, the relative viability (NCI-H2405; first compound 2.53 µM) was 0.55 and the relative viability (LOU-NH91; first compound 0.08 µM) was 0.483. It also gave a relative viability (LOU-NH91; first compound 0.253 µM) of 0.544, a relative viability (LOU-NH91; first compound 0.8 µM) of 0.504 and a relative viability (LOU-NH91; first compound 2.53 µM) of 0.476. It also gave a relative viability (HARA; first compound 0.08 µM) of 0.297, a relative viability (HARA; first compound 0.253 µM) of 0.226 and a relative viability (HARA; first compound 0.8 µM) of 0.27. For the same compound, the relative viability (HARA; first compound 2.53 µM) was 0.258, the relative viability (NCI-H2087; first compound 0.08 µM) was 0.221 and the relative viability (NCI-H2087; first compound 0.253 µM) was 0.263. The relative viability (NCI-H2087; first compound 0.8 µM) was 0.297, the relative viability (NCI-H2087; first compound 2.53 µM) was 0.268 and the relative viability (NCI-H1355; first compound 0.08 µM) was 0.407. The relative viability (NCI-H1355; first compound 0.253 µM) was 0.418, the relative viability (NCI-H1355; first compound 0.8 µM) was 0.388 and the relative viability (NCI-H1355; first compound 2.53 µM) was 0.435. It also gave a relative viability (NCI-H2170; first compound 0.08 µM) of 0.389, a relative viability (NCI-H2170; first compound 0.253 µM) of 0.369 and a relative viability (NCI-H2170; first compound 0.8 µM) of 0.403. The relative viability (NCI-H2170; first compound 2.53 µM) was 0.371, the relative viability (SK-LU-1; first compound 0.08 µM) was 0.416 and the relative viability (SK-LU-1; first compound 0.253 µM) was 0.389. The relative viability (SK-LU-1; first compound 0.8 µM) was 0.367, the relative viability (SK-LU-1; first compound 2.53 µM) was 0.367 and the relative viability (NCI-H661; first compound 0.08 µM) was 0.421. The relative viability (NCI-H661; first compound 0.253 µM) was 0.384, the relative viability (NCI-H661; first compound 0.8 µM) was 0.455 and the relative viability (NCI-H661; first compound 2.53 µM) was 0.396. For the same compound, the relative viability (NCI-H1395; first compound 0.08 µM) was 0.653, the relative viability (NCI-H1395; first compound 0.253 µM) was 0.618 and the relative viability (NCI-H1395; first compound 0.8 µM) was 0.614. It also gave a relative viability (NCI-H1395; first compound 2.53 µM) of 0.654, a relative viability (NCI-H2342; first compound 0.08 µM) of 0.507 and a relative viability (NCI-H2342; first compound 0.253 µM) of 0.557. For the same compound, the relative viability (NCI-H2342; first compound 0.8 µM) was 0.558, the relative viability (NCI-H2342; first compound 2.53 µM) was 0.506 and the relative viability (NCI-H647; first compound 0.08 µM) was 0.471. It also gave a relative viability (NCI-H647; first compound 0.253 µM) of 0.358, a relative viability (NCI-H647; first compound 0.8 µM) of 0.361 and a relative viability (NCI-H647; first compound 2.53 µM) of 0.469. It also gave a relative viability (NCI-H1792; first compound 0.08 µM) of 0.77, a relative viability (NCI-H1792; first compound 0.253 µM) of 0.551 and a relative viability (NCI-H1792; first compound 0.8 µM) of 0.525. It also gave a relative viability (NCI-H1792; first compound 2.53 µM) of 0.578, a relative viability (EKVX; first compound 0.08 µM) of 0.276 and a relative viability (EKVX; first compound 0.253 µM) of 0.354. For the same compound, the relative viability (EKVX; first compound 0.8 µM) was 0.37, the relative viability (EKVX; first compound 2.53 µM) was 0.5 and the relative viability (NCI-H1437; first compound 0.08 µM) was 0.327. The relative viability (NCI-H1437; first compound 0.253 µM) was 0.296, the relative viability (NCI-H1437; first compound 0.8 µM) was 0.288 and the relative viability (NCI-H1437; first compound 2.53 µM) was 0.304. It also gave a relative viability (NCI-H522; first compound 0.08 µM) of 0.981, a relative viability (NCI-H522; first compound 0.253 µM) of 0.823 and a relative viability (NCI-H522; first compound 0.8 µM) of 0.919. For the same compound, the relative viability (NCI-H522; first compound 2.53 µM) was 0.855.
